According to US9663496B2, “AMPK-activating heterocyclic compounds and methods for using the same” (Rigel Pharmaceuticals, Inc., priority 2010, dated 2017):

target: AMPK; assay: AMPK activation, enzyme-linked immunosorbent assay; format: biochemical; settings: EC50 for AMPK activation, ELISA
Summary of the method: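 Activator screen performed per well-known kit methods.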

EC50	SMILES
< 0.5 µM	CC(=O)c1ccc(Oc2ccc(NC(=O)c3ccc(C(=O)N4CCC(Oc5ccc(S(C)(=O)=O)cc5)CC4)cn3)cn2)cc1 [Compound 259, N-(6-(4-acetylphenoxy)pyridin-3-yl)-5-(4-(4-(methylsulfonyl)phenoxy)piperidine-1-carbonyl)picolinamide]
< 0.5 µM	COc1ccc(CN2CCC(NC(=O)c3ccc(C(=O)N4CCC(Oc5cccc(NC(=O)C6CC6)c5)CC4)nc3)CC2)cc1 [Compound 435, 6-(4-(3-(cyclopropanecarboxamido)phenoxy)piperidine-1-carbonyl)-N-(1-(4-methoxybenzyl)piperidin-4-yl)nicotinamide]
1 to 5 µM	COc1ccc(CN2CCC(NC(=O)c3ccc(C(=O)N4CCC(Oc5ccc(S(C)(=O)=O)cc5)CC4)nc3)CC2)cc1 [Compound 237, N-(1-(4-methoxybenzyl)piperidin-4-yl)-6-(4-(4-(methylsulfonyl)phenoxy)piperidine-1-carbonyl)nicotinamide]
< 0.5 µM	N#Cc1ccc(CN2CCC3(CC2)CCN(c2ccc(C(=O)N4CCN(Cc5ccc(F)cc5)CC4)cn2)C3)cc1 [Compound 31, 4-((2-(5-(4-(4-fluorobenzyl)piperazine-1-carbonyl)pyridin-2-yl)-2,8-diazaspiro[4.5]decan-8-yl)methyl)benzonitrile]
< 0.5 µM	CS(=O)(=O)c1ccc(OC2CCN(C(=O)c3ccc(C(=O)Nc4ccc(Oc5ccc(F)cc5)nc4)cn3)CC2)cc1 [Compound 235, N-(6-(4-fluorophenoxy)pyridin-3-yl)-6-(4-(4-(methylsulfonyl)phenoxy)piperidine-1-carbonyl)nicotinamide]
< 0.5 µM	CC(=O)Nc1ccc(OC2CCN(C(=O)c3ccc(C(=O)NC4CCN(Cc5ccc(C#N)cc5)CC4)cn3)CC2)cc1 [Compound 366, 6-(4-(4-acetamidophenoxy)piperidine-1-carbonyl)-N-(1-(4-cyanobenzyl)piperidin-4-yl)nicotinamide]
< 0.5 µM	N#Cc1ccc(CN2CCC(NC(=O)c3ccc(N4CCC(Oc5ccc(C(F)(F)F)cc5)CC4)cn3)CC2)cc1 [Compound 301, N-(1-(4-cyanobenzyl)piperidin-4-yl)-5-(4-(4-(trifluoromethyl)phenoxy)piperidin-1-yl)picolinamide]
< 0.5 µM	N#Cc1ccc(CN2CCC(NC(=O)c3ccc(C(=O)N4CCC(C(=O)c5ccc(F)c(F)c5)CC4)cn3)CC2)cc1 [Compound 281, N-(1-(4-cyanobenzyl)piperidin-4-yl)-5-(4-(3,4-difluorobenzoyl)piperidine-1-carbonyl)picolinamide]
0.5 to 1 µM	CC(C)(C)C(=O)N1CCN(C(=O)c2ccc(C(=O)NC3CCN(Cc4ccc(C#N)cc4)CC3)nc2)CC1 [Compound 81, N-(1-(4-cyanobenzyl)piperidin-4-yl)-5-(4-pivaloylpiperazine-1-carbonyl)picolinamide]
< 0.5 µM	N#Cc1ccc(CN2CCC(NC(=O)c3ccc(C(=O)N4CCC(Oc5ccc([N+](=O)[O-])cc5)CC4)nc3)CC2)cc1 [Compound 363, N-(1-(4-cyanobenzyl)piperidin-4-yl)-6-(4-(4-nitrophenoxy)piperidine-1-carbonyl)nicotinamide]
< 0.5 µM	CCS(=O)(=O)c1ccc(C(=O)C2CCN(C(=O)c3ccc(C(=O)NC4CCN(Cc5ccc(C#N)cc5)CC4)nc3)CC2)cc1 [Compound 260, N-(1-(4-cyanobenzyl)piperidin-4-yl)-5-(4-(4-(ethylsulfonyl)benzoyl)piperidine-1-carbonyl)picolinamide]
0.5 to 1 µM	CS(=O)(=O)c1ccc(C(=O)C2CCN(C(=O)c3ccc(C(=O)N[C@@H]4CCN(Cc5ccc(C#N)cc5)C[C@H]4F)nc3)CC2)cc1 (relative stereo) [Compound 252, N-((trans)-1-(4-cyanobenzyl)-3-fluoropiperidin-4-yl)-5-(4-(4-(methylsulfonyl)benzoyl)piperidine-1-carbonyl)picolinamide]
1 to 5 µM	N#Cc1ccc(CN2CCC(NC(=O)c3ccc(C(=O)N4CCN(C(=O)c5ccccc5)CC4)cn3)CC2)cc1 [Compound 80, 5-(4-benzoylpiperazine-1-carbonyl)-N-(1-(4-cyanobenzyl)piperidin-4-yl)picolinamide]
1 to 5 µM	O=C(NC1CCN(c2ccc(F)cc2)CC1)c1ccc(C(=O)N2CCN(Cc3ccc(F)cc3)CC2)nc1 [Compound 404, 6-(4-(4-fluorobenzyl)piperazine-1-carbonyl)-N-(1-(4-fluorophenyl)piperidin-4-yl)nicotinamide]
< 0.5 µM	CCOC(=O)c1ccc(OC2CCN(C(=O)c3ccc(C(=O)NC4CCN(Cc5ccc(C#N)cc5)CC4)nc3)CC2)cc1 [Compound 284, ethyl 4-(1-(6-(1-(4-cyanobenzyl)piperidin-4-ylcarbamoyl)nicotinoyl)piperidin-4-yloxy)benzoate]
< 0.5 µM	COc1ccc(C(=O)C2CCN(C(=O)c3ccc(C(=O)NC4CCN(Cc5ccc(C#N)cc5)CC4(F)F)cn3)CC2)cc1 (stereo not drawn) [Compound 498, N-(1-(4-cyanobenzyl)-3,3-difluoropiperidin-4-yl)-6-(4-(4-methoxybenzoyl)piperidine-1-carbonyl)nicotinamide]

EC50	SMILES
1 to 5 µM	O=C(NC1CCN(Cc2ccccc2)CC1)c1ccc(Nc2cccc(Oc3ccccc3)c2)cn1 [Compound 112, N-(1-benzylpiperidin-4-yl)-5-(3-phenoxyphenylamino) picolinamide]
< 0.5 µM	COc1ccc(C(=O)C2CCN(C(=O)c3cnc(C(=O)NC4CCN(Cc5ccc(C#N)cc5)CC4)cn3)CC2)cc1 [Compound 211, N-(1-(4-cyanobenzyl)piperidin-4-yl)-5-(4-(4-methoxybenzoyl)piperidine-1-carbonyl)pyrazine-2-carboxamide]
< 0.5 µM	N#Cc1ccc(CN2CCC(NC(=O)c3ccc(C(=O)N4CCN(c5ccc(F)cc5)CC4)cn3)CC2)cc1 [Compound 341, N-(1-(4-cyanobenzyl)piperidin-4-yl)-5-(4-(4-fluorophenyl)piperazine-1-carbonyl)picolinamide]
< 0.5 µM	COc1ccc(C(=O)C2CCN(C(=O)c3ccc(C(=O)NC4CCN(Cc5ccc(F)cc5)CC4)nc3)CC2)cc1 [Compound 178, N-(1-(4-fluorobenzyl)piperidin-4-yl)-5-(4-(4-methoxybenzoyl)piperidine-1-carbonyl)picolinamide]
< 0.5 µM	COc1ccc(Oc2ccc(NC(=O)c3ccc(C(=O)N4CCN(Cc5ccc(F)cc5)CC4)cn3)cc2)cc1 [Compound 54, 5-(4-(4-fluorobenzyl)piperazine-1-carbonyl)-N-(4-(4-methoxyphenoxy)phenyl)picolinamide]
< 0.5 µM	O=C(Nc1ccc(Oc2ccc(F)cc2)nc1)c1ccc(C(=O)N2CCN(Cc3ccc(F)cc3)CC2)nc1 [Compound 334, 6-(4-(4-fluorobenzyl)piperazine-1-carbonyl)-N-(6-(4-fluorophenoxy)pyridin-3-yl)nicotinamide]
< 0.5 µM	CC(=O)c1ccc(Oc2ccc(NC(=O)c3ccc(C(=O)N4CCN(c5ccc(S(=O)(=O)C(C)C)cc5)CC4)nc3)cn2)cc1 [Compound 489, N-(6-(4-acetylphenoxy)pyridin-3-yl)-6-(4-(4-(isopropylsulfonyl)phenyl)piperazine-1-carbonyl)nicotinamide]
< 0.5 µM	N#Cc1ccc(CN2CCC(NC(=O)c3cnc(C(=O)N4CCC(C(=O)c5ccc(N6CCCC6)cc5)CC4)cn3)CC2)cc1 [Compound 219, N-(1-(4-cyanobenzyl)piperidin-4-yl)-5-(4-(4-(pyrrolidin-1-yl)benzoyl)piperidine-1-carbonyl)pyrazine-2-carboxamide]
< 0.5 µM	CC(C)S(=O)(=O)c1ccc(N2CCN(C(=O)c3ccc(C(=O)NC4CCN(Cc5ccc(C#N)cc5)CC4)nc3)CC2)cc1 [Compound 251, N-(1-(4-cyanobenzyl)piperidin-4-yl)-5-(4-(4-(isopropylsulfonyl)phenyl)piperazine-1-carbonyl)picolinamide]
< 0.5 µM	N#Cc1ccc(OC2CCN(C(=O)c3ccc(C(=O)NCCOc4ccc(F)cc4)nc3)CC2)cc1 [Compound 306, 5-(4-(4-cyanophenoxy)piperidine-1-carbonyl)-N-(2-(4-fluorophenoxy)ethyl)picolinamide]
< 0.5 µM	CS(=O)(=O)c1ccc(C(=O)C2CCN(C(=O)c3ccc(C(=O)Nc4ccc(Oc5ccc(F)cc5)nc4)cn3)CC2)cc1 [Compound 224, N-(6-(4-fluorophenoxy)pyridin-3-yl)-6-(4-(4-(methylsulfonyl)benzoyl)piperidine-1-carbonyl)nicotinamide]
< 0.5 µM	CS(=O)(=O)c1ccc(N2CCN(C(=O)c3ccc(C(=O)NC4CCN(Cc5ccc(C#N)cc5)CC4)nc3)CC2)cc1 [Compound 250, N-(1-(4-cyanobenzyl)piperidin-4-yl)-5-(4-(4-(methylsulfonyl)phenyl)piperazine-1-carbonyl)picolinamide]
< 0.5 µM	N#Cc1ccc(O[C@H]2CC[C@@H](NC(=O)c3ccc(C(=O)N4CCC(Oc5ccc(C(F)(F)F)cc5)CC4)cn3)CC2)cc1 [Compound 190, N-((cis)-4-(4-cyanophenoxy)cyclohexyl)-5-(4-(4-(trifluoromethyl)phenoxy)piperidine-1-carbonyl)picolinamide]
0.5 to 1 µM	N#Cc1ccc(CN2CCC(NC(=O)c3ccc(C(=O)N4CCN(S(=O)(=O)c5ccccc5)CC4)cn3)CC2)cc1 [Compound 82, N-(1-(4-cyanobenzyl)piperidin-4-yl)-5-(4-(phenylsulfonyl)piperazine-1-carbonyl)picolinamide]
< 0.5 µM	COc1ccc(C(=O)C2CCN(c3ccc(C(=O)NC4CCN(Cc5ccc(C#N)cc5)CC4)nc3)CC2)cc1 [Compound 302, N-(1-(4-cyanobenzyl)piperidin-4-yl)-5-(4-(4-methoxybenzoyl)piperidin-1-yl)picolinamide]
< 0.5 µM	COc1ccc(CN2CCC(NC(=O)c3ccc(C(=O)N4CCC(Oc5ccc(C#N)cc5)CC4)nc3)CC2)cc1 [Compound 319, 6-(4-(4-cyanophenoxy)piperidine-1-carbonyl)-N-(1-(4-methoxybenzyl)piperidin-4-yl)nicotinamide]

SMILES	EC50
N#Cc1ccc(CN2CCC(NC(=O)c3ccc(C(=O)N4C5CCC4CC(Oc4ccc(C#N)cc4)C5)cn3)CC2)cc1 [Compound 280, N-(1-(4-cyanobenzyl)piperidin-4-yl)-5-((1R,3r,5S)-3-(4-cyanophenoxy)-8-azabicyclo[3.2.1]octane-8-carbonyl)picolinamide]	< 0.5 µM
